Like-named read-outs stand apart in the source and are kept apart here.
Columns and labels:
PfHT [1] = target: T1, PfHT (Plasmodium falciparum, UniProt O97467); experiment: Heterologous FRET glucose sensor screening assay in PfHT-FLIP HEK293 cells; type: cell-based; conditions: for inhibition at 10 µM: HEK293, FRET ratio, vehicle 100%, 200 μM CB 0%
T1 construct: endogenous in cells; host or cells: P. falciparum 3D7 parasites freed from human erythrocytes
T1 sequence (O97467 1-504): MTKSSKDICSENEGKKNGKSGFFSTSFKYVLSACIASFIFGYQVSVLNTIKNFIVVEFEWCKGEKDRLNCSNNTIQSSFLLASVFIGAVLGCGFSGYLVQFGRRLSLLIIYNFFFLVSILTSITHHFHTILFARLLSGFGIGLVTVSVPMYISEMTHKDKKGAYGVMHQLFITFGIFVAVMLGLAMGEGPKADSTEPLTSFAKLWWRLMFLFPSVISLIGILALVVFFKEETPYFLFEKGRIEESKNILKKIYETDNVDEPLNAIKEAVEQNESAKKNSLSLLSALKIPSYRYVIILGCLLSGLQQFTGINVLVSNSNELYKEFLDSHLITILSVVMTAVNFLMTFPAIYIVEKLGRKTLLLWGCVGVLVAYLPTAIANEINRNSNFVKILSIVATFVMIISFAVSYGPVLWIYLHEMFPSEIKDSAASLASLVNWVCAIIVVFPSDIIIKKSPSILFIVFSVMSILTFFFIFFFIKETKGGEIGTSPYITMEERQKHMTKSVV
Text: HEK293 cells were transfected with pcDNA3.1 FLII12Pglu-700uDelta6 (Addgene, Cambridge, Mass.), containing the FRET glucose sensor (HEK293-FLIP) using Optifect Reagent (Life Technologies, Waltham, Mass.) according to manufacturer's specifications. Cells that stably integrated the gene were selected using G418 (Sigma Aldrich, St. Louis, Mo.) and highest expressers were identified using Fluorescence Activated Cell Sorting (FACS). These cells were then stably transfected with PfHT, human GLUT1 (hGLUT1), human GLUT2 (hGLUT2), human GLUT3 (hGLUT3) or human GLUT4 (hGLUT4) DNA in the pcDNA 3.1(−) hygro plasmid (Life Technologies). Single clones were selected by comparing their ability to transport radiolabeled glucose. In all cell lines except for HEK293 overexpressing hGLUT1 cells, native hGLUT1 was knocked down using shRNA.
96-well plates were pretreated with 25 μg/ml Polyethylenimine (PEI, 750 kDa, Sigma Aldrich) solution containing 150 mM NaCl to maintain cell adhesion during washing steps. After 20 min incubation at room temperature (RT), PEI was aspirated and wells were air dried for 5 min. PfHT-FLIP cells were plated 48 h prior to the assay in black opaque 96-well plates (Greiner Bio-One, Monroe, N.C.), which were previously treated with PEI, at 30,000 cells/well. After cell plating, plates were then left in the sterile hood at RT for 45 min before transfer to the incubator to reduce edge effects. Compound screening was performed using the integrated and automated screening system (Beckman Coulter, Brea, Calif.) at the Washington University High Throughput Screening Core. SAMI EX software (Beckman Coulter) was used to design and execute the screening protocol. The Malaria Box (Medicines for Malaria Venture, Geneva, Switzerland) compound library was prediluted in glucose-free HEPES buffered saline solution (HBSS) (146 mM NaCl, 4.7 mM KCl, 0.6 mM MgSO4, 1.6 mM NaHCO3, 0.13 mM NaH2PO4, 2.5 mM CaCl2, 20 mM HEPES, pH 7.3) using the BiomekFX liquid handler (Beckman Coulter). A 1:100 dilution of 1 mM stock solution was prepared for 10 μM final concentration.
To initiate the screening assay, cells were washed twice with 150 μl HBSS per well using the ELx405 Plate Washer (Biotek, Winooski, Vt.). Cells were starved in HBSS for 30 min at RT, followed by aspiration of the HBSS from cell plates using the ELx405 Plate Washer. Cells were treated with 45 μl of diluted compound using the BiomekFX (with 3 replicate cell plates for each library plate) and incubated for 6 min at RT. To initiate the uptake, 5 μl of 100 mM glucose was added to the wells (final concentration 10 mM) using a Multidrop384 dispenser (Thermo Fisher Scientific, Waltham, Mass.). After incubation at RT for 120 min, fluorescence was measured using the 2102 EnVision Multilabel Plate Reader (Perkin Elmer, Waltham, Mass.) at excitation 436 nm (CFP) and emissions 485 nm (CFP) and 535 nm (YFP).
The Malaria Box was screened at 10 μM drug concentrations in triplicate and selected hits that decreased the FRET ratio by more than 30% with vehicle-treated cells set to 100% and cells treated with 200 μM CB set to 0%. Since fluorescent compounds have the potential to generate false positive hits, the FRET ratio of compounds without cells present was determined. After false positive elimination, 5 compounds were identified as primary hits. Hit confirmation was ascertained by determining the IC50 for glucose uptake into isolated P. falciparum parasites from blood culture using radiolabeled D-glucose. […] Compound MMV020548 was included for comparison as it was previously identified from the same library. The similar IC50 observed in the freed parasite glucose uptake assay and in vitro growth inhibition assay for MMV009085, was consistent with the interpretation that this compound is acting through PfHT blockage to inhibit parasite growth (Table 3) although, alternative targets in the parasite might be inhibited as well.

P. falciparum strain 3D7 = experiment: P. falciparum growth inhibition assay (PicoGreen DNA content); type: cell-based; conditions: Plasmodium falciparum; for EC50: intraerythrocytic forms, strain 3D7
Experimental: P. falciparum strain 3D7 was obtained from the Malaria Research and Reference Reagent Resource Center (MR4). P. falciparum parasites were cultured in a 2% suspension of human erythrocytes and RPMI 1640 (Sigma Aldrich) medium supplemented with 27 mM sodium bicarbonate, 11 mM glucose, 5 mM HEPES, 1 mM sodium pyruvate, 0.37 mM hypoxanthine, 0.01 mM thymidine, 10 μg/ml gentamicin, and 0.5% Albumax (Gibco, Waltham, Mass.) at 37° C., 5% O2/5% CO2/90% N2 atmosphere.
Asynchronous P. falciparum cultures were diluted to 1% parasitemia and were treated with compounds at concentrations ranging from 9.8 nM-20 μM. Growth inhibition assays were performed in 100 μl cultures in opaque 96-well plates. Parasite growth was quantified after 3 days by measuring DNA content using PicoGreen (Life Technologies). Fluorescence was measured by a FLUOstar Omega microplate reader (BMG Labtech, Cary, N.C.) at 485 nm excitation and 528 nm emission. IC50 values were calculated by nonlinear regression analysis using GraphPad Prism software.

P. falciparum = conditions: values provided with the malaria box; read-out: EC50 for P. falciparum growth inhibition Malaria box; cited from earlier work
PfHT [2] = target: T1, PfHT; experiment: Uptake of [14C]-2-DOG into isolated (freed) P. falciparum parasites; type: cell-based
Experimental: P. falciparum strain 3D7 was cultured in 100 mm tissue culture dishes (Techno Plastic Products, Trasadingen Switzerland) in a 2% suspension of human erythrocytes and RPMI 1640 medium until reaching >5% parasitemia. Cells were pelleted via centrifugation and resuspended in RPMI. To determine the uptake of radiolabeled glucose into the parasite, it was isolated from the erythrocyte while removing uninfected erythrocytes. Uptake of [^14C]-2-DOG into isolated parasites was determined at RT using the methods described previously(19). Test compounds were added 5 min prior to the addition of [^14C]-2-DOG (0.2 μCi/ml final concentration). Uptake was quenched after 2 min Data were fit by nonlinear regression analysis using GraphPad Prism software. Uptake of [^3H]-2-DOG into HEK293-FLIP cell lines was measured in HEPES-buffered saline at RT for 4 min Data were fit by nonlinear regression analysis using GraphPad Prism software.

PfHT [3] = target: T1, PfHT; conditions: cited from earlier work
hGLUTs 1-4 = experiment: Uptake of [3H]-2-DOG by HEK293 cells overexpressing PfHT or hGLUTs 1-4; type: cell-based, human
Experimental: To establish selectivity of these hits for PfHT over human orthologues, the inhibition of GLUTs 1, 2, 3 and 4 was cross-validated by the confirmed hits. […] The inhibitory effect of the five confirmed hits was determined on all four human class I GLUTs at the IC50 concentration for PfHT-mediated glucose uptake inhibition.

PfHT [4] = target: T1, PfHT; experiment: Glucose uptake into PfHT overexpressing L. mexicana parasites (Ortiz et al.); type: cell-based
parasites = conditions: cited from earlier work
[5] = system: human insulin-responsive glucose transporter GLUT4; conditions: cited from earlier work
[6] = 72 h, P. falciparum strain 3D7, growth after 3 days, read-out: IC50 3D7 in vitro
[7] = IC50 PfHT in parasites, Table 1
[8] = IC50 for glucose uptake in freed parasites, from dose-response curves of FIG. 4
[9] = PfHT overexpressing L. mexicana, read-out: IC50 PfHT (determined by Ortiz et al. (15) in L. mexicana)

Compound | IC50 (P. falciparum strain 3D7; [6]) [µM] | EC50 (P. falciparum strain 3D7) [µM] | EC50 (P. falciparum) [µM] | inhibition at 10 µM (PfHT [1]) [%] | IC50 (PfHT [2]; [7]) [µM] | IC50 (PfHT [2]; [8]) [µM] | glucose uptake versus proline transport in PfHT-overexpressing Leishmania mexicana (PfHT [3]) | other results
C=C1[C@@H](C)[C@H]2[C@H](Cc3ccccc3)NC(=O)[C@]23OC(=O)/C=C/[C@H](O)CCC[C@@H](C)C/C=C/[C@H]3[C@@H]1O [CB, cytochalasin B, reference compound] | – | – | – | – | – | – | – | maximal decrease in FRET ratio (PfHT [1]; 50 μM, PfHT-FLIP cells): 75%; inhibition of D-glucose uptake (PfHT [1]; 200 μM, PfHT-FLIP cells): complete inhibition
Cc1ccc2nc(C)cc(Nc3cccc(C(F)(F)F)c3)c2c1 [MMV000326] | 0.344 | 0.344 | 1.17 | 49 | 139 | 286 | – | –
O=C1c2ccc3c4c(ccc(c24)C(=O)N1CCCCO)C(=O)N(CCCCO)C3=O [MMV009085] | 0.987 | 0.987 | 0.795 | 87 | 1.8 | – | selectively inhibit glucose uptake, but not proline transport | IC50 (P. falciparum strain 3D7; 3D7, read-out: IC50 malaria parasite growth assay): 0.99 µM; IC50 (PfHT [3]; read-out: IC50 L. mexicana PfHT overexpression assay): 0.051 µM; selectivity for PfHT over human orthologues (IC50s for glucose uptake inhibition) (hGLUTs 1-4): more than 10 fold; difference in potency by the two assays (parasite growth vs L. mexicana PfHT overexpression) (PfHT [4]): 20 fold; IC50 (PfHT [2]; IC50 for PfHT-mediated glucose uptake): 2.6 µM
CCN1CCN(Cc2ccc(NC(=O)c3cc4ccc5cccnc5c4[nH]3)cc2)CC1 [MMV020548] | 0.114 | 0.114 | 0.361 | 21 | 21.3 | 15.5 | selectively inhibit glucose uptake, but not proline transport | IC50 (PfHT [3]; [9]): 3.5 µM
CC(C)(C)C(=O)Nc1ccc(C(=O)Nc2cccc(-c3nc4ccccc4[nH]3)c2)cc1 [MMV665879] | 0.39 | 0.39 | – | 49 | 6.6 | 8.3 | selectively inhibit glucose uptake, but not proline transport | IC50 (PfHT [3]; [9]): 2.7 µM
COc1cc(C(=O)Nc2ccc(-c3nc4ccccc4[nH]3)cc2)cc(OC)c1OC [MMV665898] | 0.487 | 0.487 | 1.22 | 64 | 6.2 | 5.3 | – | –
CN(C)c1ccc(C(O)(c2ccc(N(C)C)cc2)c2ccc(N(C)C)cc2)cc1 [MMV665941] | 0.026 | 0.026 | 0.255 | 31 | 13.3 | 19.6 | – | inhibition of glucose uptake at the highest concentration tested (PfHT [2]; FIG. 4): only partial inhibition
Cc1cccc(C)c1OCC(=O)N[C@@H](Cc1ccccc1)[C@@H](O)C[C@H](Cc1ccccc1)NC(=O)[C@H](C(C)C)N1CCCNC1=O [lopinavir] | – | – | – | – | – | – | – | IC50 (parasites): 16 µM; FRET ratio with addition of D-glucose (PfHT [1]; PfHT-FLIP cells, FIG. 2a): decreased FRET ratio; selectivity GLUT4 over PfHT [5]: higher selectivity for the human insulin-responsive glucose transporter GLUT4 over PfHT

Reference: US20170307590A1, “INHIBITORS OF MALARIAL AND HUMAN GLUCOSE TRANSPORTERS AND METHODS FOR IDENTIFYING THE INHIBITORS” (Washington University in St. Louis, priority 2016, published 2017)
